Measurements published in patent US20240261268A1, “METHODS OF SLOWING AN INCREASE IN BRAIN VENTRICULAR VOLUME” (VANDA PHARMACEUTICALS INC., priority 2022, published 2024).

Columns and labels:
[1] = other S1P receptor modulators, given for comparison; cited from earlier work
[2] = tested on: adult subjects with relapsing MS; test: MRI-based scaled brain ventricular volume (lateral + 3rd ventricle / ICV); format: in vivo, human
From the text: Efficacy variable/timepoint: The endpoint was increase in ventricular volume up to the end of study (EOS). All available data up to EOS, regardless of treatment discontinuation was included (ITT approach).
Ventricular Volume (VV) data were obtained from MRI images from patients that participated in the OPTIMUM study. Data were obtained from those patients who had MRI imagines at baseline week 60 and week 108. One pre-requisite was to select only those patients who had all images completed.
Ventricular volume was estimated from MRI images collected at baseline (BL), week 60 and week 108 for 428 subjects treated with ponesimod and 427 with teriflunomide. Lesions were identified using T2-weighted and Proton Density (PD) MRIs. Ventricles were segmented using lesion-filled T1 images using with the longitudinal stream in FreeSurfer 7. For each subject, scaled ventricular volume (V) was computed as the sum of lateral and 3rd ventricle volumes divided by the intracranial volume (ICV) and expressed as a percentage. Average V (V) and average change in V (ΔV) from baseline at weeks 60 and 108 were compared across treatment arms. Ventricular volumes were correlated with Multiple Sclerosis Functional Composite (MSFC), Paced Auditory Serial Addition Test (PASAT), Average Timed 25 Foot Walk (T25FW), Average 9-Hole Peg Test (9-HPT), Single Digit Modality Test (SDMT), FSIQ-RMS and Expanded Disability Score (EDSS).

[3] = tested on: adult subjects with relapsing MS; test: Phase III study: premature treatment discontinuation and deaths; format: in vivo
Procedure: A total of 1468 subjects were screened. Of those, 1133 subjects were randomized (567 to ponesimod 20 mg and 566 to teriflunomide 14 mg) across 162 sites in 28 countries, and 1131 subjects received at least one dose of study drug. The disposition of subjects is summarized in Table 1 and a summary of reasons (primary reason) for treatment discontinuation are shown in Table 2. Overall treatment and study discontinuation were balanced across both treatment arms. A total of 6.5% and 2.5% of the subjects discontinued due to AEs or tolerability related reasons in ponesimod 20 mg and teriflunomide 14 mg, respectively, while 1.9% and 4.3% discontinued due to efficacy related reasons. There were 2 deaths reported during the study—both on teriflunomide 14 mg.

[4] = tested on: adult subjects with relapsing MS; test: Phase III study ponesimod 20 mg vs teriflunomide 14 mg: treatment-emergent adverse events (Safety Set)
Procedure: A prospective, multicenter, randomized, double-blind, active controlled, parallel-group, phase III, superiority study was conducted.
The treatment period consisted of an up-titration period (from Day 1 to 14) and a maintenance period (Day 15 until EOT).
To reduce the first-dose effect of ponesimod, an up-titration scheme was implemented from Day 1 to Day 14: • Days 1 and 2; 2 mg. • Days 3 and 4; 3 mg. • Days 5 and 6; 4 mg. • Day 7; 5 mg. • Day 8; 6 mg. • Day 9; 7 mg. • Day 10; 8 mg. • Day 11; 9 mg. • Days 12, 13, and 14; 10 mg. • Day 15 until EOT; 20 mg.
The Safety Set (SAF) included all randomized subjects who received at least one dose of study treatment. Subjects were analyzed based on actual treatment taken, not randomized treatment.

[5] = tested on: adult subjects with relapsing MS; test: 12-lead ECG heart rate and first-dose monitoring on Day 1; format: in vivo, human
Procedure: The incidence of treatment-emergent heart rate and rhythm (including hypotension) AESIs on Day 1 was higher in the ponesimod 20 mg arm (2.1%) than in the teriflunomide 14 mg arm (0.4%). However, the overall incidence of first dose AESI on Day 1 was low (2.1%) in ponesimod. None of these events were serious nor led to permanent discontinuation of study treatment. Discharge criteria at 4 hours post-dose were met for ca. 99% of subjects. […] ECG HR effect: nadir at 2 hours post-dose (siponimod—3-4 hours, fingolimod—around by 6 hours). Low incidence of low HR outliers (post-dose HR≤40 bpm), all 3 of them with a pre-treatment HR of <55 bpm, which is a known risk factor for post-dose bradycardia with SIP receptor modulators.
The mean heart rate reduction compared to pre-dose reached a maximum for ponesimod 20 mg at 2-hours post dose, −8.7 bpm compared to −1.7 bpm for teriflunomide 14 mg (FIG. 2).

[6] = week 60 and week 108 vs baseline, ponesimod n=428, teriflunomide n=427
[7] = ponesimod 20 mg N=565, teriflunomide 14 mg N=566, Safety Set
[8] = ponesimod 20 mg, teriflunomide 14 mg
[9] = Day 1, ponesimod N=565, teriflunomide N=566, Safety Set
[10] = treatment-emergent, ponesimod 20 mg N=565, teriflunomide 14 mg N=566, Safety Set

## CCc1cc(/C(C)=N/OCc2ccc(C3CCCCC3)c(C(F)(F)F)c2)ccc1CN1CC(C(=O)O)C1 [siponimod]
[1]
  ECG HR effect: time of nadir post-dose: 3 to 4 h

## CCC/N=C1\S/C(=C\c2ccc(OC[C@H](O)CO)c(Cl)c2)C(=O)N1c1ccccc1C [ponesimod, (R)-5-[3-chloro-4-(2,3-dihydroxy-propoxy)-benz[Z]ylidene]-2-([Z]-propylimino)-3-o-tolyl-thiazolidin-4-one]
[2]; week 60
  Rate of increase in ventricular volume lower compared to teriflunomide: 60%
[2]; week 60, p<0.001
  Difference in ventricular volume increase, ponesimod minus teriflunomide (Δ60V^pon−Δ60V^ter): −0.025%
[2]; week 60, p<0.001 vs baseline, ponesimod n=428, teriflunomide n=427
  Average change in scaled ventricular volume from baseline (Δ60V), percentage of ICV: 0.026%
[2]; [6]
  Reduction of atrophy compared to teriflunomide (FIGS. 4-6; 3rd and lateral ventricle): greater
  Ventricular enlargement compared to teriflunomide (FIG. 3): less
[2]; week 108
  Rate of increase in ventricular volume lower compared to teriflunomide: 45%
[2]; week 108, p<0.001
  Difference in ventricular volume increase, ponesimod minus teriflunomide (Δ108V^pon−Δ108V^ter): 0.043%
[2]; week 108, p<0.001 vs baseline, ponesimod n=428, teriflunomide n=427
  Average change in scaled ventricular volume from baseline (Δ108V), percentage of ICV: 0.067%
[3]; [7]
  Premature discontinuation: Death: 0 n
[3]; [8]
  Subjects discontinued due to AEs or tolerability related reasons: 6.5%
[4]; Day 1, ponesimod 20 mg arm, teriflunomide 14 mg arm
  Incidence of treatment-emergent heart rate and rhythm (including hypotension) AESIs on Day 1: 2.1%
[4]; [9]
  AESI effect on heart rate and rhythm (including hypotension) on Day 1: Subjects with at least one AE: 12(2.1) n (%)
  AESI heart rate and rhythm on Day 1, PT: Atrioventricular block first degree: 3(0.5) n (%)
  AESI heart rate and rhythm on Day 1, PT: Bradycardia: 4(0.7) n (%)
  AESI heart rate and rhythm on Day 1, PT: Bundle branch block left: 1(0.2) n (%)
  AESI heart rate and rhythm on Day 1, PT: Bundle branch block right: 1(0.2) n (%)
  AESI heart rate and rhythm on Day 1, PT: Defect conduction intraventricular: 2(0.4) n (%)
  AESI heart rate and rhythm on Day 1, PT: Electrocardiogram QT prolonged: 0 n (%)
  AESI heart rate and rhythm on Day 1, PT: Presyncope: 0 n (%)
  AESI heart rate and rhythm on Day 1, PT: Sinus arrhythmia: 1(0.2) n (%)
  AESI heart rate and rhythm on Day 1, PT: Sinus bradycardia: 1(0.2) n (%)
[4]; only if serious or severe, ponesimod 20 mg N=565, teriflunomide 14 mg N=566, Safety Set
  Treatment-emergent AESI: Infection: 9(1.6) n (%)
[4]; [7]
  TEAEs leading to premature discontinuation of study drug: Subjects with at least one AE: 49(8.7) n (%)
  TEAEs leading to premature discontinuation, SOC: Blood and lymphatic system disorders: 3(0.5) n (%)
  TEAEs leading to premature discontinuation, SOC: Cardiac disorders: 1(0.2) n (%)
  TEAEs leading to premature discontinuation, SOC: Eye disorders: 5(0.9) n (%)
  TEAEs leading to premature discontinuation, SOC: Gastrointestinal disorders: 4(0.7) n (%)
  TEAEs leading to premature discontinuation, SOC: General disorders and administration site conditions: 3(0.5) n (%)
  TEAEs leading to premature discontinuation, SOC: Hepatobiliary disorders: 3(0.5) n (%)
  TEAEs leading to premature discontinuation, SOC: Investigations: 12(2.1) n (%)
  TEAEs leading to premature discontinuation, SOC: Musculoskeletal and connective tissue disorders: 1(0.2) n (%)
  TEAEs leading to premature discontinuation, SOC: Neoplasms benign, malignant and unspecified (incl cysts and polyps): 1(0.2) n (%)
  TEAEs leading to premature discontinuation, SOC: Nervous system disorders: 2(0.4) n (%)
  TEAEs leading to premature discontinuation, SOC: Pregnancy, puerperium and perinatal conditions: 3(0.5) n (%)
  TEAEs leading to premature discontinuation, SOC: Psychiatric disorders: 1(0.2) n (%)
  TEAEs leading to premature discontinuation, SOC: Reproductive system and breast disorders: 0 n (%)
  TEAEs leading to premature discontinuation, SOC: Respiratory, thoracic and mediastinal disorders: 7(1.2) n (%)
  TEAEs leading to premature discontinuation, SOC: Skin and subcutaneous tissue disorders: 1(0.2) n (%)
  TEAEs leading to premature discontinuation, SOC: Social circumstances: 2(0.4) n (%)
  TEAEs leading to premature discontinuation, SOC: Surgical and medical procedures: 0 n (%)
  TEAEs leading to premature discontinuation, SOC: Vascular disorders: 3(0.5) n (%)
  Treatment-emergent AESI: Effect on heart rate and rhythm (including hypotension): 29(5.1) n (%)
  Treatment-emergent AESI: Hepatobiliary disorders/Liver enzyme abnormality: 145(25.7) n (%)
  Treatment-emergent AESI: Herpetic infection: 27(4.8) n (%)
  Treatment-emergent AESI: Hypertension: 57(10.1) n (%)
  Treatment-emergent AESI: Macular edema: 6(1.1) n (%)
  Treatment-emergent AESI: Non-skin malignancy: 1(0.2) n (%)
  Treatment-emergent AESI: Pulmonary events: 45(8.0) n (%)
  Treatment-emergent AESI: Seizure: 8(1.4) n (%)
  Treatment-emergent AESI: Skin malignancy: 5(0.9) n (%)
[4]; [8]
  AESI category hepatobiliary disorders/liver enzyme abnormality: 25.7%
  AESI category hypertension: 10.1%
  AESI category pulmonary events: 8.0%
  Proportion of subjects who experienced at least one SAE: 8.7%
  Proportion of subjects who experienced at least one TEAE: 88.8%
  TEAE: ALT increased: 19.5%
  TEAE: headache: 11.5%
  TEAE: nasopharyngitis: 19.3%
  TEAE: upper respiratory tract infection: 10.6%
  TEAEs leading to premature treatment discontinuation: 8.7%
[4]; [10]
  Subjects with at least one AE: 502(88.8) n (%)
  Subjects with at least one AE leading to study drug discontinuation: 49(8.7) n (%)
  Subjects with at least one Drug-Related AE: 278(49.2) n (%)
  Subjects with at least one Fatal AE: 0 n (%)
  Subjects with at least one Serious AE: 49(8.7) n (%)
  Subjects with at least one Severe AE: 39(6.9) n (%)
[5]; Day 1, 2 hours post dose, 12-lead ECG
  Mean heart rate reduction compared to pre-dose (maximum): −8.7 bpm
[5]; Day 1, first dose
  2nd or higher degree AV block: No 2nd or higher degree AV block was observed
  ECG HR effect: time of nadir / maximum mean heart rate reduction post-dose: 2 h
  Subjects meeting discharge criteria at 4 hours post-dose: ca. 99%
[5]; Day 1, all had pre-treatment HR <55 bpm
  Subjects with asymptomatic post-dose HR≤40 bpm: 3 subjects

## CCCCCCCCc1ccc(CCC(N)(CO)CO)cc1 [fingolimod]
[1]
  ECG HR effect: time of nadir post-dose: ~6 h
